Reference: patent US12459912B2 (priority 2020, dated 2025)

Assays:
[1] = target: T1, PDE3A (cGMP-inhibited cyclic nucleotide phosphodiesterase 3A) (Homo sapiens, UniProt Q14432); experiment: PDE3A/Enzymatic; type: biochemical
T1 construct: purchased Signal Chem

[2] = target: ADRA2A (Adrenergic Receptor on α2A) (Homo sapiens, UniProt P08913); experiment: ADRA2A/cAMP; type: cell-based
[3] = test system: T2, GABAA (Gamma-aminobutyric acid Receptor A); type: cell-based
T2 construct: other: opener

[4] = target: T3, LCK (Lymphocyte Cell-Specific Protein-Tyrosine Kinase (Src family)) (Homo sapiens, UniProt P06239); experiment: LCK/Binding (KINOMEscan)
T3 construct: made in house; host or cells: E. coli BL21-derived host (T7 phage) or HEK-293

[5] = target: NAV1.5 (tetrodotoxin-resistant voltage-gated sodium channel) (Homo sapiens, UniProt Q14524); experiment: cell-based
[6] = target: T4, PDE4D2 (cAMP-specific 3′,5′-cyclic phospho-diesterase) (Homo sapiens, UniProt Q08499); experiment: PDE4D2/Enzymatic; type: biochemical
T4 construct: purchased Signal Chem

[7] = target: T5, ROCK1 (Rho Associated Coiled-Coil Containing Protein Kinase 1) (Homo sapiens, UniProt Q13464); experiment: ROCK1/Binding (KINOMEscan)
T5 construct: made in house; host or cells: E. coli BL21-derived host (T7 phage) or HEK-293

[8] = target: T6, AChE (Acetylcholinesterase) (Homo sapiens, UniProt P22303); experiment: AChE/Enzymatic; type: biochemical
T6 construct: purchased R&D Systems

[9] = target: T7, INSR (Insulin Receptor (tyrosine kinase)) (Homo sapiens, UniProt P06213); experiment: INSR/Binding (KINOMEscan)
T7 construct: made in house; host or cells: E. coli BL21-derived host (T7 phage) or HEK-293

[10] = target: GR (Nuclear Hormone Glucocorticoid Receptor) (Homo sapiens, UniProt P04150); experiment: GR/NHR Protein Interaction; type: cell-based
[11] = target: EDNRA (Endothelin Receptor Type A) (Homo sapiens, UniProt P25101); experiment: EDNRA/Calcium Flux; type: cell-based
[12] = target: OPRK1 (Opioid Receptor Kappa 1) (Homo sapiens, UniProt P41145); experiment: OPRK1/cAMP; type: cell-based
[13] = target: CHRM2 (Muscarinic acetylcholine Receptor M2) (Homo sapiens, UniProt P08172); experiment: CHRM2/cAMP; type: cell-based
[14] = target: T8, COX1 (Cyclooxygenase 1) (Homo sapiens, UniProt P23219); experiment: COX1/Enzymatic; type: biochemical
T8 construct: purchased BPS Bioscience

[15] = target: T9, 5-Hydroxytryptamine (Serotonin) Receptor 3A (5-HT3A) (Homo sapiens, UniProt P46098); experiment: 5-HT3A/Ion Channel; type: cell-based; conditions: EC50 (μM)
T9 construct: expressed in transfected cells

[16] = target: ADRA1A (Adrenergic Receptor on α1A) (Homo sapiens, UniProt P35348); experiment: ADRA1A/Calcium Flux; type: cell-based; conditions: EC50 (μM)
[17] = target: T10, DAT (Dopamine transporter) (Homo sapiens, UniProt Q01959); experiment: DAT/Transporter (fluorescent substrate uptake); type: cell-based
T10 construct: expressed in transfected cells

[18] = target: T11, CAV1.2 (Voltage-gated L-type calcium channel) (Homo sapiens, UniProt Q13936); experiment: CAV1.2/Ion Channel; type: cell-based
T11 construct: expressed in transfected cells

[19] = target: CNR2 (Cannabinoid Receptor 2) (Homo sapiens, UniProt P34972); experiment: CNR2/cAMP; type: cell-based
[20] = target: OPRM1 (Opioid Receptor Mu) (Homo sapiens, UniProt P35372); experiment: cell-based
[21] = target: ADRB1 (Adrenergic Receptor β1) (Homo sapiens, UniProt P08588); experiment: ADRB1/cAMP; type: cell-based
[22] = target: 5-Hydroxytryptamine (Serotonin) Receptor 2B (5-HT2B) (Homo sapiens, UniProt P41595); experiment: 5-HT2B/Calcium Flux; type: cell-based; conditions: EC50 (μM)
[23] = target: T12, MAOA (Monoamine oxidase type A) (Homo sapiens, UniProt P21397); experiment: MAOA/Enzymatic; type: biochemical
T12 construct: purchased Sigma

[24] = target: DRD2S (Dopamine Receptor D2) (Homo sapiens, UniProt P14416); experiment: DRD2S/cAMP; type: cell-based
[25] = target: 5-Hydroxytryptamine (Serotonin) Receptor 1B (5-HT1B) (Homo sapiens, UniProt P28222); experiment: 5-HT1B/cAMP; type: cell-based; conditions: EC50 (μM)
[26] = target: 5-Hydroxytryptamine (Serotonin) Receptor 1A (5-HT1A) (Homo sapiens, UniProt P08908); experiment: 5-HT1A/cAMP; type: cell-based
[27] = target: T13, NMDAR (1A/2B) (N-methyl-D-aspartate (NMDA) Glutamate Receptor 1A/2B) (Homo sapiens, UniProt Q05586+Q13224); experiment: NMDAR (1A/2B)/Ion Channel; type: cell-based
T13 construct: expressed in transfected cells

[28] = target: HRH2 (Histamine Receptor H2) (Homo sapiens, UniProt P25021); experiment: HRH2/cAMP; type: cell-based
[29] = target: T14, hERG (Homo sapiens, UniProt Q12809); experiment: hERG/Ion Channel; type: cell-based
T14 construct: expressed in transfected cells

[30] = target: OPRD1 (Opioid Receptor Delta 1) (Homo sapiens, UniProt P41143); experiment: OPRD1/cAMP; type: cell-based
[31] = target: AVPR1A (Arginine Vasopressin Receptor 1A) (Homo sapiens, UniProt P37288); experiment: AVPR1A/Calcium Flux; type: cell-based
[32] = target: T15, COX2 (Cyclooxygenase 2) (Homo sapiens, UniProt P35354); experiment: COX2/Enzymatic; type: biochemical
T15 construct: purchased BPS Bioscience

[33] = target: CHRM1 (Muscarinic acetylcholine Receptor M1) (Homo sapiens, UniProt P11229); experiment: cell-based
[34] = target: DRD1 (Dopamine Receptor D1) (Homo sapiens, UniProt P21728); experiment: DRD1/cAMP; type: cell-based
[35] = target: CNR1 (Cannabinoid Receptor 1) (Homo sapiens, UniProt P21554); experiment: CNR1/cAMP; type: cell-based

CNC(C)Cc1ccc2ccsc2c1 (stereo not drawn) [drawing 522]
EC50 [1]: > 10 µM | EC50 [2]: > 10 µM | EC50 [3]: > 10 µM | EC50 [4]: > 10 µM | EC50 [5]: > 10 µM | EC50 [6]: > 10 µM | EC50 [7]: > 10 µM | EC50 [8]: > 10 µM | EC50 [9]: > 10 µM | EC50 [10]: > 10 µM | EC50 [11]: > 10 µM | EC50 [12]: > 10 µM | EC50 [13]: > 10 µM | EC50 [14]: > 10 µM | EC50 ([15]; blocker): 5.18 µM | EC50 ([15]; opener): > 10 µM | EC50 ([16]; agonist): > 10 µM | EC50 ([16]; antagonist): 3.43 µM | EC50 [17]: 0.32 µM | EC50 [18]: > 10 µM | EC50 [19]: > 10 µM | EC50 [20]: > 10 µM | EC50 [21]: > 10 µM | EC50 ([22]; agonist): > 10 µM | EC50 ([22]; antagonist): 0.072 µM | EC50 [23]: 0.945 µM | EC50 [24]: > 10 µM | EC50 ([25]; agonist): 0.024 µM | EC50 ([25]; antagonist): > 10 µM | EC50 [26]: > 10 µM | EC50 [27]: > 10 µM | EC50 [28]: > 10 µM | EC50 [29]: > 10 µM | EC50 [30]: > 10 µM | EC50 [31]: > 10 µM | EC50 [32]: > 10 µM | EC50 [33]: > 10 µM | EC50 [34]: > 10 µM | EC50 [35]: > 10 µM
